Reference: ChEMBL document CHEMBL1201862, “PubChem BioAssay data set” (2004)
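Growth conditions: 96-well plates. Treatment: test compound, 48 hours, 5 concentrations. Analysis: linear interpolation between bracketing concentrations; unreached endpoints set to highest concentration. GI50: concentration for 50% inhibition of growth.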 Active and inactive are the calls of the source. No stated cut-off is given here; in the data, active = GI50 up to about 1.1 µM and inactive = higher.

How the values were obtained:
Assay in all cases: NCI tumour cell line growth inhibition, 48 h
Malme-3M = system: Malme-3M
NCI-H226 = system: NCI-H226
U-251 = system: U-251
BT-549 = system: BT-549
SF-268 = system: SF-268
HL-60 = system: HL-60
SW-620 = system: SW-620
SF-539 = system: SF-539
ACHN = system: ACHN
HT-29 = system: HT-29
NCI-H522 = system: NCI-H522
NCI-H460 = system: NCI-H460
MOLT-4 = system: MOLT-4
MDA-N = system: MDA-N
IGROV-1 = system: IGROV-1
NCI/ADR-RES = system: NCI/ADR-RES
786-0 = system: 786-0
HCT-116 = system: HCT-116
SK-MEL-5 = system: SK-MEL-5
SR = system: SR
SN12C = system: SN12C
T47D = system: T47D
SF-295 = system: SF-295
SNB-75 = system: SNB-75
OVCAR-3 = system: OVCAR-3
K562 = system: K562
HOP-62 = system: HOP-62
CAKI-1 = system: CAKI-1
A549 = system: A549
UO-31 = system: UO-31
CCRF-CEM = system: CCRF-CEM
SNB-19 = system: SNB-19
NCI-H23 = system: NCI-H23
RXF 393 = system: RXF 393
RPMI-8226 = system: RPMI-8226
Hs-578T = system: Hs-578T
MDA-MB-231 = system: MDA-MB-231
SK-MEL-2 = system: SK-MEL-2
TK-10 = system: TK-10
EKVX = system: EKVX
PC-3 = system: PC-3
OVCAR-8 = system: OVCAR-8
COLO 205 = system: COLO 205
M14 = system: M14
KM12 = system: KM12
DU-145 = system: DU-145
UACC-62 = system: UACC-62
OVCAR-5 = system: OVCAR-5
HOP-92 = system: HOP-92
SK-OV-3 = system: SK-OV-3
LOX IMVI = system: LOX IMVI
A498 = system: A498
HCT-15 = system: HCT-15
MCF7 = system: MCF7
MDA-MB-435 = system: MDA-MB-435
UACC-257 = system: UACC-257
SK-MEL-28 = system: SK-MEL-28
HCC 2998 = system: HCC 2998
OVCAR-4 = system: OVCAR-4

Measured: GI50

Cc1ccc2c(O)cc(-c3csc4ccccc34)nc2n1
inactive: T47D 21.2 µM
active: Malme-3M < 0.01 µM | NCI-H226 0.0174 µM | U-251 < 0.01 µM | BT-549 0.0183 µM | SF-268 0.018 µM | HL-60 < 0.01 µM | SW-620 < 0.01 µM | SF-539 < 0.01 µM | ACHN < 0.01 µM | HT-29 0.0173 µM | NCI-H522 < 0.01 µM | NCI-H460 < 0.0161 µM | MOLT-4 < 0.01 µM | MDA-N < 0.01 µM | IGROV-1 0.0362 µM | NCI/ADR-RES < 0.01 µM | 786-0 < 0.01 µM | HCT-116 < 0.0104 µM | SK-MEL-5 < 0.0112 µM | SR < 0.01 µM | SN12C 0.0323 µM | SF-295 < 0.01 µM | SNB-75 < 0.01 µM | OVCAR-3 < 0.01 µM | K562 < 0.01 µM | HOP-62 < 0.0138 µM | CAKI-1 < 0.01 µM | A549 0.0164 µM | UO-31 0.0138 µM | CCRF-CEM < 0.01 µM | SNB-19 < 0.01 µM | NCI-H23 0.0274 µM | RXF 393 < 0.01 µM | RPMI-8226 < 0.01 µM | Hs-578T 0.0101 µM | MDA-MB-231 0.021 µM | SK-MEL-2 0.0139 µM | TK-10 0.484 µM | EKVX 0.0344 µM | PC-3 < 0.01 µM | OVCAR-8 0.0202 µM | COLO 205 0.0239 µM | M14 < 0.01 µM | KM12 < 0.01 µM | DU-145 0.0163 µM | UACC-62 < 0.0122 µM | OVCAR-5 0.0358 µM | HOP-92 0.321 µM | SK-OV-3 < 0.01 µM | LOX IMVI < 0.0115 µM | A498 < 0.01 µM | MCF7 0.0131 µM | MDA-MB-435 < 0.01 µM
< 0.0151 µM: HCT-15

COc1cccc2cc(C(C)=O)c(=O)oc12
inactive: Malme-3M 52.8 µM | NCI-H226 > 100 µM | U-251 > 100 µM | UACC-257 > 100 µM | BT-549 > 100 µM | SK-MEL-28 > 100 µM | SF-268 > 100 µM | HL-60 > 100 µM | SW-620 > 100 µM | HCC 2998 > 100 µM | SF-539 > 100 µM | ACHN > 100 µM | HT-29 > 100 µM | NCI-H522 > 100 µM | NCI-H460 > 100 µM | MOLT-4 > 100 µM | MDA-N > 100 µM | IGROV-1 > 100 µM | NCI/ADR-RES > 100 µM | 786-0 > 100 µM | HCT-116 > 100 µM | SK-MEL-5 > 100 µM | SR > 100 µM | SN12C > 100 µM | T47D 12.6 µM | SF-295 > 100 µM | SNB-75 > 100 µM | OVCAR-3 > 100 µM | K562 > 100 µM | HOP-62 > 100 µM | CAKI-1 > 100 µM | A549 > 100 µM | UO-31 > 100 µM | CCRF-CEM > 100 µM | OVCAR-4 > 100 µM | NCI-H23 > 100 µM | RXF 393 > 100 µM | RPMI-8226 > 100 µM | Hs-578T > 100 µM | MDA-MB-231 > 100 µM | SK-MEL-2 > 100 µM | TK-10 > 100 µM | EKVX > 100 µM | PC-3 > 100 µM | OVCAR-8 > 100 µM | COLO 205 > 100 µM | M14 > 100 µM | KM12 > 100 µM | DU-145 > 100 µM | UACC-62 > 100 µM | OVCAR-5 > 100 µM | HOP-92 > 100 µM | LOX IMVI > 100 µM | A498 > 100 µM | MCF7 > 100 µM | MDA-MB-435 > 100 µM

CCOc1ccc(-n2c(=O)n3c(Nc4ccc(Cl)cc4)nc4c(c(=O)n(C)c(=O)n4C)n3c2=O)cc1
20.7 µM: HCT-15
inactive: NCI-H226 22.7 µM | U-251 32.7 µM | UACC-257 23.5 µM | BT-549 29 µM | SK-MEL-28 28.2 µM | SF-268 34.8 µM | HL-60 22 µM | SW-620 33.9 µM | HCC 2998 19.5 µM | SF-539 41 µM | ACHN 43.4 µM | HT-29 27.7 µM | NCI-H522 18.1 µM | NCI-H460 19.5 µM | MOLT-4 23.9 µM | MDA-N 32.7 µM | IGROV-1 37.4 µM | NCI/ADR-RES > 100 µM | 786-0 36.6 µM | HCT-116 19.5 µM | SK-MEL-5 19 µM | SR 21 µM | SN12C 27.2 µM | T47D 39.2 µM | SF-295 31.6 µM | SNB-75 13.7 µM | OVCAR-3 23 µM | K562 29.6 µM | HOP-62 71.1 µM | CAKI-1 38.5 µM | A549 75.5 µM | UO-31 > 100 µM | CCRF-CEM 20.8 µM | SNB-19 > 100 µM | OVCAR-4 53 µM | NCI-H23 27.5 µM | RXF 393 26.6 µM | RPMI-8226 24 µM | Hs-578T 33 µM | MDA-MB-231 15.5 µM | SK-MEL-2 26.4 µM | TK-10 18.8 µM | EKVX 24.9 µM | PC-3 47.6 µM | OVCAR-8 36.8 µM | COLO 205 21.6 µM | M14 > 10 µM | KM12 16 µM | DU-145 40.9 µM | UACC-62 18.1 µM | OVCAR-5 37.6 µM | HOP-92 22.5 µM | LOX IMVI 20.4 µM | A498 22.9 µM | MCF7 57.3 µM | MDA-MB-435 20.3 µM

O=[N+]([O-])c1ccc(Cl)cc1-n1nc(-c2ccccc2)cc1-c1ccccc1
inactive: Malme-3M > 100 µM | NCI-H226 > 100 µM | U-251 > 100 µM | UACC-257 > 100 µM | BT-549 > 100 µM | SK-MEL-28 > 100 µM | SF-268 > 100 µM | HL-60 > 100 µM | SW-620 > 100 µM | HCC 2998 > 100 µM | SF-539 50.5 µM | ACHN > 100 µM | HT-29 97.3 µM | NCI-H522 > 100 µM | NCI-H460 > 100 µM | MOLT-4 > 100 µM | MDA-N > 100 µM | IGROV-1 > 100 µM | NCI/ADR-RES > 100 µM | 786-0 > 100 µM | HCT-116 99.8 µM | SK-MEL-5 > 100 µM | SR > 100 µM | SN12C > 100 µM | T47D 22.3 µM | SF-295 > 100 µM | SNB-75 > 100 µM | OVCAR-3 > 100 µM | K562 > 100 µM | HOP-62 > 10 µM | CAKI-1 > 100 µM | A549 > 100 µM | UO-31 > 100 µM | CCRF-CEM > 100 µM | SNB-19 > 100 µM | OVCAR-4 > 100 µM | NCI-H23 > 100 µM | RPMI-8226 > 100 µM | Hs-578T 81.3 µM | MDA-MB-231 > 100 µM | SK-MEL-2 > 100 µM | TK-10 > 100 µM | EKVX > 100 µM | PC-3 > 100 µM | OVCAR-8 > 100 µM | COLO 205 > 100 µM | M14 > 100 µM | KM12 > 100 µM | DU-145 > 100 µM | UACC-62 > 100 µM | OVCAR-5 > 100 µM | HOP-92 > 100 µM | SK-OV-3 > 100 µM | A498 > 100 µM | MCF7 95.1 µM | MDA-MB-435 > 100 µM
> 100 µM: HCT-15
